This is an account of results in patent US4326054A, “Cleomycins and process for producing same” (Zaidan Hojin Biseibutsu Kagaku Kenkyu Kai, priority 1979, dated 1982).

Data set [1] concerns Mycobacterium smegmatis ATCC 607. In words: Antimicrobial activity, agar plate-cylinder method, bleomycin A2 as standard (1,000 u/mg). Particulars: copper-free form; for Antimicrobiral potency: Table 5, relative to bleomycin A2 = 1,000 u/mg; for Antimicrobial potency: bleomycin A2 = 1,000 u/mg. The class given is cell-based. On the procedure:
Typical examples of the biological activities measured on cleomycins (copper-free form) are illustrated below.
Comparison was made with the relevant antibiotics bleomycins. The relative antimicrobial potency (u/mg) against Mycobacterium smegmatis ATCC 607 was measured by agar plate-cylinder method using bleomycin A2 as a standard (1,000 u/mg).
(Note: The antimicrobial potency was determined by taking bleomycin
A2 as 1,000 μ/mg and using Mycobacterium smegmatis ATCC 607 as a
test bacterium. Herinafter, the same was applied.)

A short description of data set [2]: Solubility (physical and chemical properties, Tables 4-1 and 4-2). The settings on record: hydrochloride, also soluble in dimethylformamide, dimethylsulfoxide, and methanol.
In data set [3] the test system is Mycobacterium smegmatis ATCC 607. The experiment in a line: Antimicrobial activity, agar plate-cylinder method, bleomycin A2 as standard (1,000 u/mg). Particulars: Examples, Step A; hydrochloride, copper-containing form; bleomycin A2 = 1,000 u/mg. Format: cell-based.
Another data set relates to HeLa S3 cells. The experiment in a line: Activity on cultured HeLa S3 cells (growth inhibition). The class given is cell-based. As for the experimental part:
Fifty percent inhibitory cocentration (LD50) was determined on a test compound cleomycin (No. 33) and on a reference compound bleomycin A2, from the percent of growth inhibition measured on HeLa S3 cells after the cells had been cultured in the presence of each of the compounds.

Where [4] appears, read: Examples, Step B, hydrochloride.

With `CCCCNCCCNCCCNC(=O)c1csc(-c2csc(CCNC(=O)C(NC(=O)C(C)C(O)C(C)NC(=O)C(NC(=O)c3nc(C(CC(N)=O)NCC(N)C(N)=O)nc(N)c3C)C(OC3OC(CO)C(O)C(O)C3OC3OC(CO)C(O)C(OC(N)=O)C3O)c3cnc[nH]3)C3(O)CC3)n2)n1` (stereo not shown) [compound 11, 3-(3-n-butylaminopropylamino)propylaminocleomycin], the Antimicrobiral potency in data set [1] is recorded as 7,942 u/mg. Also, the Solubility entry in data set [2] (copper-containing form) and in data set [2] (copper-free form) was “Soluble in water” in each case.

With `Cc1c(N)nc(C(CC(N)=O)NCC(N)C(N)=O)nc1C(=O)NC(C(=O)NC(C)C(O)C(C)C(=O)NC(C(=O)NCCc1nc(-c2nc(C(=O)NCCCN(C)CCCN)cs2)cs1)C1(O)CC1)C(OC1OC(CO)C(O)C(O)C1OC1OC(CO)C(O)C(OC(N)=O)C1O)c1cnc[nH]1` (stereo not shown) [Compound No. 20, 3-[N-methyl-N-(3-aminopropyl)]aminopropylaminocleomycin], the results for the Antimicrobial potency in data set [1] (setting [4]) and in data set [3] were 2,273 u/mg and 2,300 u/mg, respectively. Also, the Antimicrobiral potency in data set [1] is 2,273 u/mg.

Regarding `Cc1c(N)nc(C(CC(N)=O)NCC(N)C(N)=O)nc1C(=O)NC(C(=O)NC(C)C(O)C(C)C(=O)NC(C(=O)NCCc1nc(-c2nc(C(=O)NCCCNC(C)c3ccccc3)cs2)cs1)C1(O)CC1)C(OC1OC(CO)C(O)C(O)C1OC1OC(CO)C(O)C(OC(N)=O)C1O)c1cnc[nH]1` (stereo not shown) [Compound No. 33, 3-[(s)-1'-phenylethylamino]propylaminocleomycin], the Antimicrobial potency in data set [1] (Example 1, Step B, sulfate) is listed as 10,949 u/mg; in data set [3] it was 11,300 u/mg. Besides, the Antimicrobiral potency in data set [1] was 10,949 u/mg. Moreover, in the data set with HeLa S3 cells (copper-free hydrochloride), the “anti-HeLa action compared with bleomycin A2 (in words)” value is listed as “activity nearly equal to that of bleomycin A2”.

Regarding `Cc1c(N)nc(C(CC(N)=O)NCC(N)C(N)=O)nc1C(=O)NC(C(=O)NC(C)C(O)C(C)C(=O)NC(C(=O)NCCc1nc(-c2nc(C(=O)NCCCCNC(=N)N)cs2)cs1)C1(O)CC1)C(OC1OC(CO)C(O)C(O)C1OC1OC(CO)C(O)C(OC(N)=O)C1O)c1cnc[nH]1` (stereo not shown) [4-guanidinobutylaminocleomycin], the Antimicrobial potency in data set [1] (setting [4]) is 3,262 u/mg; in data set [3], 3,350 u/mg.

Regarding `Cc1c(N)nc(C(CC(N)=O)NCC(N)C(N)=O)nc1C(=O)NC(C(=O)NC(C)C(O)C(C)C(=O)NC(C(=O)NCCc1nc(-c2nc(C(=O)NCCCCNC(=N)N)cs2)cs1)C1(O)CC1)C(OC1OC(CO)C(O)C(O)C1OC1OC(CO)C(O)C(OC(N)=O)C1O)c1cnc[nH]1` (stereo not shown) [Compound No. 2, 4-guanidinobutylaminocleomycin], in data set [1], the Antimicrobiral potency is 3,262 u/mg. The Solubility result in data set [2] (copper-containing form) and in data set [2] (copper-free form) was “Soluble in water” throughout.

As to `CCCCNCCCNCCCNC(=O)c1csc(-c2csc(CCNC(=O)C(NC(=O)C(C)C(O)C(C)NC(=O)C(NC(=O)c3nc(C(CC(N)=O)NCC(N)C(N)=O)nc(N)c3C)C(OC3OC(CO)C(O)C(O)C3OC3OC(CO)C(O)C(OC(N)=O)C3O)c3cnc[nH]3)C3(O)CC3)n2)n1` (stereo not shown), the Antimicrobial potency in data set [1] (setting [4]) is given as 7,942 u/mg; in data set [3], 8,130 u/mg.

Consider `Cc1c(N)nc(C(CC(N)=O)NCC(N)C(N)=O)nc1C(=O)NC(C(=O)NC(C)C(O)C(C)C(=O)NC(C(=O)NCCc1nc(-c2nc(C(=O)NCCC[S+](C)C)cs2)cs1)C(C)O)C(OC1OC(CO)C(O)C(O)C1OC1OC(CO)C(O)C(OC(N)=O)C1O)c1cnc[nH]1` (stereo not shown) [Bleomycin A2, reference compound], for which the IC50 in the data set on HeLa S3 cells (Homo sapiens, HeLa S3, read-out: LD50 (fifty percent inhibitory concentration, growth inhibition)) turned out to be 0.73 µg/mL.

Take `Cc1c(N)nc(C(CC(N)=O)NCC(N)C(N)=O)nc1C(=O)NC(C(=O)NC(C)C(O)C(C)C(=O)NC(C(=O)NCCc1nc(-c2nc(C(=O)NCCC[S+](C)C)cs2)cs1)C1(O)CC1)C(OC1OC(CO)C(O)C(O)C1OC1OC(CO)C(O)C(OC(N)=O)C1O)c1cnc[nH]1` (stereo not shown) [compound 1, 3-s,s-dimethylmercaptopropylaminocleomycin]: the Antimicrobial potency in data set [1] (setting [4]) is 1,320 u/mg; in data set [3], 1,360 u/mg. The Antimicrobiral potency in data set [1] is reported as 1,320 u/mg. The Solubility result in data set [2] (copper-containing form) and in data set [2] (copper-free form) was “Soluble in water” each time.

With `Cc1c(N)nc(C(CC(N)=O)NCC(N)C(N)=O)nc1C(=O)NC(C(=O)NC(C)C(O)C(C)C(=O)NC(C(=O)NCCc1nc(-c2nc(C(=O)NCCCNCCCCN)cs2)cs1)C1(O)CC1)C(OC1OC(CO)C(O)C(O)C1OC1OC(CO)C(O)C(OC(N)=O)C1O)c1cnc[nH]1` (stereo not shown), the figures for the Antimicrobial potency in data set [1] (setting [4]) and in data set [3] were 3,575 u/mg and 3,520 u/mg, respectively.
